{
  "source": "paper PMC6342556",
  "about": "(ACS chemical neuroscience, 2018)",
  "target": "serotonin transporter (hSERT) (Homo sapiens, UniProt P31645)",
  "sequence (P31645 whole entry)": "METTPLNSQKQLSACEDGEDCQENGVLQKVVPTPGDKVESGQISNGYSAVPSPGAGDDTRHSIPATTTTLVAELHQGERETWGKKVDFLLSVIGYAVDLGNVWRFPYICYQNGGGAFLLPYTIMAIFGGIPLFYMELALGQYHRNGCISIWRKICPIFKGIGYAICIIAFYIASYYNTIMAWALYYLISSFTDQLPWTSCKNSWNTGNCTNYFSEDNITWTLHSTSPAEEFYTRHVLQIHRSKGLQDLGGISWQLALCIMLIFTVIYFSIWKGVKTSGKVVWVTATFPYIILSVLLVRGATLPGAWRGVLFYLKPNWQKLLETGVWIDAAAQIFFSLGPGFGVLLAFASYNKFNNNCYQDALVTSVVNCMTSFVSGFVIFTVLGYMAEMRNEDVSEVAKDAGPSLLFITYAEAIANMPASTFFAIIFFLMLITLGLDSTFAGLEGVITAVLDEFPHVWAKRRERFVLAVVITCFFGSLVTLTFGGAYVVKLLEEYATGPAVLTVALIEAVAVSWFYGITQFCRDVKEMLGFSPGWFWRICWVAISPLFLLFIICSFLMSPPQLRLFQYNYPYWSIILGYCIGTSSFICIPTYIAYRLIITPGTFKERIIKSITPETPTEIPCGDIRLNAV",
  "assay": "fluorometric uptake",
  "type": "cell-based",
  "data": [
    {"smiles": "NCCc1ccc2[nH]c3ccccc3c(=O)c2c1", "note": "[FFN54]", "values": [
      {"measurement": "fluorometric uptake (5 μM) in hSERT-HEK cells with and without imipramine; S/B =", "value": "FFN54 showed hSERT-dependent cell uptake in a multi-well fluorometric assay using hSERT-transfected human kidney cells"}
    ]}
  ]
}
